Results: ChEMBL document CHEMBL1201862, “PubChem BioAssay data set” (2004)
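96-well plates; 48 h exposure; 5 concentrations. Endpoints by linear interpolation between flanking doses. Not reached: highest tested concentration assigned. GI50 = concentration required for 50% inhibition of growth.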 The source made the active and inactive calls. Rule as the data show it: active = GI50 up to about 1.1 µM and inactive = higher.

Assays:
Test in all cases: DTP human tumour cell line panel, 48 h
[1] = test system: CAKI-1
[2] = test system: UACC-257
[3] = test system: HT-29
[4] = test system: SK-MEL-5
[5] = test system: NCI-H460
[6] = test system: RPMI-8226
[7] = test system: K562
[8] = test system: KM12
[9] = test system: M14
[10] = test system: SF-539
[11] = test system: PC-3
[12] = test system: SNB-75
[13] = test system: EKVX
[14] = test system: Hs-578T
[15] = test system: SR
[16] = test system: OVCAR-4
[17] = test system: HCC 2998
[18] = test system: COLO 205
[19] = test system: MDA-N
[20] = test system: OVCAR-5

CCOc1cc(C2SCC(=O)N2c2ccc(Oc3ccc(Cl)cc3)c(Cl)c2)ccc1O (centres undefined)
GI50 [1]: 17.3 µM (inactive) | GI50 [2]: 17.5 µM (inactive) | GI50 [3]: 17.1 µM (inactive) | GI50 [4]: 16.1 µM (inactive) | GI50 [5]: 19.2 µM (inactive) | GI50 [6]: 14.7 µM (inactive) | GI50 [7]: 27.1 µM (inactive) | GI50 [8]: 16.9 µM (inactive) | GI50 [9]: 23.5 µM (inactive) | GI50 [10]: 16.1 µM (inactive) | GI50 [11]: 16.6 µM (inactive) | GI50 [12]: 21.2 µM (inactive) | GI50 [13]: 18 µM (inactive) | GI50 [14]: 17.3 µM (inactive) | GI50 [15]: 2.04 µM (inactive) | GI50 [16]: 16 µM (inactive) | GI50 [17]: 17.9 µM (inactive) | GI50 [18]: 22.5 µM (inactive) | GI50 [19]: 23.1 µM (inactive) | GI50 [20]: 20.2 µM (inactive)

CCN(CC)CC[n+]1ccc2c(C)c3[nH]c4ccc(O)cc4c3c(C)c2c1
GI50 [1]: 13.8 µM (inactive) | GI50 [2]: 19.6 µM (inactive) | GI50 [3]: 8.45 µM (inactive) | GI50 [4]: 3.09 µM (inactive) | GI50 [5]: 0.434 µM (active) | GI50 [6]: 7.31 µM (inactive) | GI50 [7]: 4.06 µM (inactive) | GI50 [8]: 4.31 µM (inactive) | GI50 [9]: 10.7 µM (inactive) | GI50 [10]: 3.89 µM (inactive) | GI50 [11]: 7.46 µM (inactive) | GI50 [12]: 1 µM (active) | GI50 [13]: 10.8 µM (inactive) | GI50 [14]: 0.552 µM (active) | GI50 [15]: 0.0278 µM (active) | GI50 [16]: 3.85 µM (inactive) | GI50 [17]: 6.15 µM (inactive) | GI50 [18]: 3.18 µM (inactive) | GI50 [19]: 8.89 µM (inactive) | GI50 [20]: 15.9 µM (inactive)

COC(=O)C(CCCCN)NC(C)=O.Cc1ccc(C(=O)Nc2ccc(S(=O)(=O)O)c3cc(S(=O)(=O)O)cc(S(=O)(=O)O)c23)cc1NC(=O)c1cccc(NC(=O)Nc2cccc(C(=O)Nc3cc(C(=O)Nc4ccc(S(=O)(=O)O)c5cc(S(=O)(=O)O)cc(S(=O)(=O)O)c45)ccc3C)c2)c1
GI50 [1]: > 50 µM (inactive) | GI50 [2]: > 50 µM (inactive) | GI50 [3]: > 50 µM (inactive) | GI50 [4]: > 50 µM (inactive) | GI50 [5]: > 50 µM (inactive) | GI50 [6]: > 50 µM (inactive) | GI50 [7]: > 50 µM (inactive) | GI50 [8]: > 50 µM (inactive) | GI50 [9]: > 50 µM (inactive) | GI50 [10]: > 50 µM (inactive) | GI50 [11]: > 50 µM (inactive) | GI50 [12]: > 50 µM (inactive) | GI50 [14]: > 50 µM (inactive) | GI50 [15]: > 50 µM (inactive) | GI50 [16]: 0.5 µM (active) | GI50 [17]: > 50 µM (inactive) | GI50 [18]: > 50 µM (inactive) | GI50 [19]: > 50 µM (inactive) | GI50 [20]: > 50 µM (inactive)

CCCCNCC(=O)O[C@]1(CC)C(=O)OCc2c1cc1n(c2=O)Cc2cc3ccccc3nc2-1
GI50 [1]: 0.0647 µM (active) | GI50 [2]: 0.646 µM (active) | GI50 [3]: 0.838 µM (active) | GI50 [4]: 0.277 µM (active) | GI50 [5]: 0.0261 µM (active) | GI50 [6]: 0.385 µM (active) | GI50 [7]: 0.476 µM (active) | GI50 [8]: 1.63 µM (inactive) | GI50 [9]: 0.231 µM (active) | GI50 [10]: 0.0832 µM (active) | GI50 [11]: 1.85 µM (inactive) | GI50 [12]: 0.098 µM (active) | GI50 [13]: 2.98 µM (inactive) | GI50 [14]: 31.9 µM (inactive) | GI50 [15]: 0.0101 µM (active) | GI50 [16]: 7.19 µM (inactive) | GI50 [17]: 1.74 µM (inactive) | GI50 [18]: 1.7 µM (inactive) | GI50 [19]: 2.11 µM (inactive) | GI50 [20]: 0.535 µM (active)

S=C(/N=C1/NCC(CN2CCN(c3ccccc3)CC2)O1)Nc1ccccc1 (centres undefined)
GI50 [1]: 73.3 µM (inactive) | GI50 [2]: > 100 µM (inactive) | GI50 [3]: 42.2 µM (inactive) | GI50 [4]: 35.3 µM (inactive) | GI50 [5]: 23.3 µM (inactive) | GI50 [6]: 42.3 µM (inactive) | GI50 [7]: 35.2 µM (inactive) | GI50 [8]: 65.2 µM (inactive) | GI50 [9]: > 100 µM (inactive) | GI50 [10]: 34.4 µM (inactive) | GI50 [11]: 39.9 µM (inactive) | GI50 [12]: > 100 µM (inactive) | GI50 [13]: > 100 µM (inactive) | GI50 [14]: > 100 µM (inactive) | GI50 [15]: 34.6 µM (inactive) | GI50 [16]: 49.3 µM (inactive) | GI50 [17]: 57.9 µM (inactive) | GI50 [18]: 28.6 µM (inactive) | GI50 [19]: > 100 µM (inactive) | GI50 [20]: > 100 µM (inactive)

COC(=O)/C=C(/C(=O)OC)c1c(C)c(C)c2c(C)cc(C)cc(C)c1-2
GI50 [1]: 27.4 µM (inactive) | GI50 [2]: 22 µM (inactive) | GI50 [3]: 11.6 µM (inactive) | GI50 [4]: 12.6 µM (inactive) | GI50 [5]: 29 µM (inactive) | GI50 [6]: > 100 µM (inactive) | GI50 [7]: > 100 µM (inactive) | GI50 [8]: 32.7 µM (inactive) | GI50 [9]: 8.93 µM (inactive) | GI50 [10]: 29.4 µM (inactive) | GI50 [11]: 28.8 µM (inactive) | GI50 [13]: 59.7 µM (inactive) | GI50 [14]: 8.99 µM (inactive) | GI50 [15]: 45.5 µM (inactive) | GI50 [16]: 76.2 µM (inactive) | GI50 [17]: 21.3 µM (inactive) | GI50 [18]: 29.4 µM (inactive) | GI50 [19]: 2.24 µM (inactive) | GI50 [20]: 19.1 µM (inactive)

COC(=O)C(CCC1C=CN(S(=O)(=O)c2ccc(C)cc2)C1)/N=C/c1ccccc1 (centres undefined)
GI50 [1]: 87.3 µM (inactive) | GI50 [2]: 50 µM (inactive) | GI50 [3]: 30.9 µM (inactive) | GI50 [4]: 22.2 µM (inactive) | GI50 [5]: 44.9 µM (inactive) | GI50 [6]: 28.1 µM (inactive) | GI50 [7]: 34.7 µM (inactive) | GI50 [8]: 34.8 µM (inactive) | GI50 [9]: 42.7 µM (inactive) | GI50 [10]: 38.6 µM (inactive) | GI50 [11]: 32.7 µM (inactive) | GI50 [12]: 52.5 µM (inactive) | GI50 [13]: 42.2 µM (inactive) | GI50 [14]: > 100 µM (inactive) | GI50 [15]: 23.4 µM (inactive) | GI50 [16]: 46.1 µM (inactive) | GI50 [17]: 43.1 µM (inactive) | GI50 [18]: 18.2 µM (inactive) | GI50 [19]: 38.3 µM (inactive) | GI50 [20]: 60.7 µM (inactive)

NCCCN1CCN(CCCNc2ccc3nnn4c5ccccc5c(=O)c2c34)CC1
GI50 [1]: 14.6 µM (inactive) | GI50 [2]: 28.2 µM (inactive) | GI50 [3]: 13.3 µM (inactive) | GI50 [4]: 13.5 µM (inactive) | GI50 [5]: 18.4 µM (inactive) | GI50 [6]: 21.8 µM (inactive) | GI50 [7]: 8.07 µM (inactive) | GI50 [9]: 17.6 µM (inactive) | GI50 [10]: 13.9 µM (inactive) | GI50 [11]: 12.5 µM (inactive) | GI50 [12]: 17.7 µM (inactive) | GI50 [13]: 19.9 µM (inactive) | GI50 [14]: 27.4 µM (inactive) | GI50 [15]: > 100 µM (inactive) | GI50 [16]: 11.8 µM (inactive) | GI50 [17]: 11.9 µM (inactive) | GI50 [18]: 4.07 µM (inactive) | GI50 [19]: 16.2 µM (inactive) | GI50 [20]: 29.6 µM (inactive)

CC1(C)C2CCC1C(=O)C(C=O)C2 (centres undefined)
GI50 [1]: > 100 µM (inactive) | GI50 [2]: > 100 µM (inactive) | GI50 [3]: > 100 µM (inactive) | GI50 [4]: > 100 µM (inactive) | GI50 [5]: > 100 µM (inactive) | GI50 [6]: > 100 µM (inactive) | GI50 [7]: > 100 µM (inactive) | GI50 [8]: > 100 µM (inactive) | GI50 [9]: > 100 µM (inactive) | GI50 [10]: 74.5 µM (inactive) | GI50 [11]: > 100 µM (inactive) | GI50 [12]: 79.1 µM (inactive) | GI50 [14]: > 100 µM (inactive) | GI50 [15]: 3.16 µM (inactive) | GI50 [17]: > 100 µM (inactive) | GI50 [18]: > 100 µM (inactive) | GI50 [19]: > 100 µM (inactive) | GI50 [20]: > 100 µM (inactive)

CC[C@H](C)[C@H]1NC(=O)[C@@H](NC(=O)[C@@H](CC(C)C)N(C)C(=O)C2CCCN2C(=O)[C@H](C)O)[C@@H](C)OC(=O)[C@H](Cc2ccc(OC)cc2)N(C)C(=O)[C@@H]2CCCN2C(=O)[C@H](CCCCNC(=O)OCc2ccccc2)NC(=O)[C@H](C)C(=O)[C@H](C(C)C)OC(=O)C[C@@H]1O (some centres undefined)
GI50 [1]: 16.8 µM (inactive) | GI50 [2]: 2.49 µM (inactive) | GI50 [3]: 3.37 µM (inactive) | GI50 [4]: 4.41 µM (inactive) | GI50 [5]: 6.4 µM (inactive) | GI50 [6]: 4.17 µM (inactive) | GI50 [7]: 7.29 µM (inactive) | GI50 [8]: 4.73 µM (inactive) | GI50 [9]: 4.13 µM (inactive) | GI50 [10]: 12.8 µM (inactive) | GI50 [11]: 3.93 µM (inactive) | GI50 [13]: 5.38 µM (inactive) | GI50 [14]: 1.41 µM (inactive) | GI50 [15]: 12.2 µM (inactive) | GI50 [16]: 5.47 µM (inactive) | GI50 [17]: 2.73 µM (inactive) | GI50 [18]: 3.91 µM (inactive) | GI50 [19]: 5.68 µM (inactive) | GI50 [20]: 7.28 µM (inactive)
